# Laboratory results as given in patent publication US20130211079A1, “SUBSTITUTED HETEROCYCLES AS THERAPEUTIC AGENTS FOR TREATING CANCER” (priority 2010, published 2013).
# Tests used:
# Aqueous solubility = type: physicochemical; details: PB11 compared with PB2
# Excerpt: The present inventor rationalized, therefore, that derivatization of an inventive compound to a more hydrophilic drugable molecule, for instance via amidation of a carboxylic acid group or the amidation of an ester group could potentially improve water solubility, binding affinity and bioavailability. See below for synthetic methodology.
# p53-hMDM2 complex = molecular target: T1, p53-hMDM2 complex (Homo sapiens, UniProt Q00987); assay: 1D AIDA-NMR antagonist-induced dissociation assay; type: binding; details: p53 (res. 1-321) + Hdm2 (res. 1-125); FIG. 3
# T1 construct: complex of p53 (res. 1-321)+Hdm2 (res. 1-125)
# Hdm2 = Hdm2 (Homo sapiens, UniProt Q00987); details: KD; method for each compound in column 'Method of KD calculation' (bin. titr., AIDA, FP, SPR)
# Hdm2, sequence (Q00987 1-125): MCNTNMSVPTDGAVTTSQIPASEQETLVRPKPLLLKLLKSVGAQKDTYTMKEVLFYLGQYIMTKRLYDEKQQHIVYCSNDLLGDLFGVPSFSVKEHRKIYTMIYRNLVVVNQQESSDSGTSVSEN
# Experimental: The affinities of imidazoline compounds of the present invention towards MDM2 or MDM4 proteins was measured by 2D H^1—N^15 HSQC NMR spectroscopy.
# Water suppression was carried out using the WATERGATE sequence. NMR spectra were acquired at 300 K on a Bruker DRX 600 MHz spectrometer equipped with a cryoprobe and the data was processed using the Bruker program Xwin-NMR V. 3.5.
# NMR ligand binding experiments were carried out in an analogous way to those previously described. […] For instance, 500 μL of the protein sample, at a concentration of about 0.1 mM, in 10% D2O and a 20 mM stock solution of nutin-3 (purchased from Cayman Chemical, MI) in DMSO-d6 were used in all experiments. […]
# For example, 500 μL of the protein sample, at a concentration of about 0.1 mM, in 10% D2O and a 20 mM stock solution of nutin-3 (purchased from Cayman Chemical, MI) in DMSO-d6 were used in all of the experiments. […] The ^1H—^15N—HSQC spectra were recorded using fast HSQC pulse sequence as described by Mori et al., J. Magn. […]
# The fluorescence intensities parallel (Intparallel) and perpendicular (Intperpedicular) to the plane of excitation were measured in black 384-well NBS assay plates (Corning) at room temperature (˜20° C.). […]
# All fluorescence polarization values were expressed in millipolarization units (mP). […] Plates were read at 30 min after mixing all assay components. […]
# T1 sequence (Q00987 1-125, one chain of several): as the sequence (Q00987 1-125) above
SMILES,water solubility (Aqueous solubility),disruption of p53-hMDM2 complex (reappearance of Trp23 peak of p53) (p53-hMDM2 complex),Binding to Hdm2 (Hdm2)
"CC(C)C[C@@]1(C(=O)NCCc2ccncc2)N=CN(CC2CC2)C1c1ccc(Cl)cc1 (mixture of isomers) [PB11, cis-5-(4-chlorophenyl)-1-(cyclopropylmethyl)-4-isobutyl-N-(2-(pyridin-4-yl)ethyl)-4,5-dihydro-1H-imidazole-4-carboxamide]",improved,dissociation of the p53-hMDM2 complex,–
"Oc1ccc2ccc(Br)cc2c1C(NCC1CC1)c1ccc(Cl)cc1 (stereo not shown) [PB13, 7-Bromo-1-[(4-chlorophenyl)(cyclopropylmethylamino)methyl]naphthalen-2-ol]",–,–,precipitation
"O=C1C(c2ccc(Cl)cc2)C(c2cc3ccc(Cl)cc3[nH]2)N1c1ccc(Cl)cc1 (stereo not shown) [PB15, 4-(6-Chloro-1H-indol-2-yl)-1,3-bis-(4-chlorophenyl)azetidin-2-one]",–,–,precipitation
